Results published in BindingDB's records for patent US20250313563 (The Broad Institute, 2025).
Where “and” joins values, the source holds several entries; their conditions need not be identical. Equal entries are not always repeated.

Legend:
[1] = target: Glycogen synthase kinase-3 alpha (Homo sapiens, UniProt P49840); assay: TR-FRET Assay
Summary of the method: (§1)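 TR-FRET readout: streptavidin-d2 (40 nM in added detection mix) plus Tb-anti-pSer641 Ab (2 nM in mix). Steps were 30 min compound preincubation, kinase reaction, then EDTA stop.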

[2] = target: Glycogen synthase kinase-3 beta (Homo sapiens, UniProt P49841); assay: TR-FRET Assay
Summary of the method: as §1

Chain of Glycogen synthase kinase-3 alpha (P49840 whole entry): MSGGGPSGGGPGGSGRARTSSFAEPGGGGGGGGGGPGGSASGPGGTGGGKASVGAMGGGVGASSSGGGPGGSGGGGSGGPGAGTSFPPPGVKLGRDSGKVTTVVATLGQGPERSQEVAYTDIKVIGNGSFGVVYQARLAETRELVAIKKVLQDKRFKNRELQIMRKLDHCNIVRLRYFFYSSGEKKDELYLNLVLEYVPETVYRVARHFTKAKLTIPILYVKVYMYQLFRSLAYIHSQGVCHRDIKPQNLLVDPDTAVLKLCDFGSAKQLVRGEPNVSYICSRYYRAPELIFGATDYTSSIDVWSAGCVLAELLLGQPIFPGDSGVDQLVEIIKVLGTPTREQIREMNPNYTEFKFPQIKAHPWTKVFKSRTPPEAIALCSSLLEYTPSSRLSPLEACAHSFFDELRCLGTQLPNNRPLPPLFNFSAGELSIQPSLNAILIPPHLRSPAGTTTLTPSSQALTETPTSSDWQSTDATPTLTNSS
Chain of Glycogen synthase kinase-3 beta (P49841 whole entry): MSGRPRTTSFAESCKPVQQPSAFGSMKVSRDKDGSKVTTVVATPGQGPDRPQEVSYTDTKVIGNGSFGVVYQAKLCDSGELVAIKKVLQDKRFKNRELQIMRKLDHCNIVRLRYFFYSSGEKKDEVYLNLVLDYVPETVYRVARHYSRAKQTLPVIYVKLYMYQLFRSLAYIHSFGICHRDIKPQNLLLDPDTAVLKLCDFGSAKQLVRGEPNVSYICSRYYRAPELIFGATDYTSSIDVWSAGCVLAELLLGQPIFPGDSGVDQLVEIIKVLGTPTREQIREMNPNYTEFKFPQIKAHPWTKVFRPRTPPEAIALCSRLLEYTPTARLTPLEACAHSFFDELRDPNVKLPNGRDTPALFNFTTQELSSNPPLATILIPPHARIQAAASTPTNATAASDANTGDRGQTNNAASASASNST

Q: Which results are given for CC[C@@]1(c2cccc(-c3c(F)cncc3OC)c2)C2=CN=NC2NC2=C1C(=O)CC(C)(C)C2 (stereo not given in full) [US20250313563, Compound 947512]?
A: IC50 [1]: < 100 nM; IC50 [2]: 100 to 1000 nM

Q: What does the source list for CCC1(c2cccc(Cc3ncccc3C(F)(F)F)c2)C2=CN=NC2NC2=C1C(=O)CC(C)(C)C2 (stereo not given) [US20250313563, Compound 947548]?
A: IC50 [1]: 100 to 1000 nM; IC50 [2]: 100 to 1000 nM

Q: CCC1(c2cccc(S(=O)(=O)C3CC3)c2)C2=C(CC(C)(C)NC2=O)NC2N=NC(C)=C21 (stereo not given) [US20250313563, Compound 947562] was tested. Which IC50 [1] did it give?
A: Its IC50 is < 100 nM.

Q: What about the IC50 [2] of the same compound?
A: Its IC50 is < 100 nM.

Q: Which results are given for CCC1(c2cccc(N3CCOCC3)c2)C2=C(CC(C)(C)NC2=O)NC2N=NC(C)=C21 (stereo not given) [US20250313563, Compound 947564]?
A: IC50 [1]: 100 to 1000 nM; IC50 [2]: 100 to 1000 nM

Q: For CCC1(c2cccc(-c3cncn3C)c2)C2=C(CC(C)(C)NC2=O)NC2N=NC(C)=C21 (stereo not given) [US20250313563, Compound 947565], which IC50 [1] is on record?
A: The IC50 was < 100 nM.

Q: And the IC50 [2]?
A: Its IC50 is < 100 nM.

Q: What does the source list for CCC1(c2cccc(N3CCCCC3)c2)C2=CN=NC2NC2=C1C(=O)NC(C)(C)C2 (stereo not given) [US20250313563, Compound 947566]?
A: IC50 [1]: 1000 to 5000 nM; IC50 [2]: 1000 to 5000 nM

Q: CCC1(c2cccc(-c3cn(C)nc3C)c2)C2=C(CC(C)(C)NC2=O)NC2N=NC(C(F)(F)F)=C21 (stereo not given) [US20250313563, Compound 947567] was tested. Which IC50 [1] did it give?
A: Its IC50 is < 100 nM.

Q: And the IC50 [2]?
A: The IC50 was < 100 nM.

Q: Which IC50 [1] does the source give for CCC1(c2cccc(-c3c(C)nn(C)c3C)c2)C2=C(CC(C)(C)NC2=O)NC2N=NC(C(F)(F)F)=C21 (stereo not given) [US20250313563, Compound 947568] here?
A: Its IC50 is < 100 nM.

Q: What about the IC50 [2] of the same compound?
A: Its IC50 is < 100 nM.

Q: What does the source list for CCC1(c2cccc(-c3ccncc3S(C)(=O)=O)c2)C2=CN=NC2NC2=C1C(=O)CC(C)(C)C2 (stereo not given) [US20250313563, Compound 947569]?
A: IC50 [1]: < 100 nM; IC50 [2]: < 100 nM

Q: For CC[C@@]1(c2cccc(-c3cc[n+]([O-])cc3[S+](C)[O-])c2)C2=CN=NC2NC2=C1C(=O)CC(C)(C)C2 (stereo not given in full) [US20250313563, Compound 947570], which IC50 [1] is on record?
A: The IC50 was 100 to 1000 nM.

Q: And the IC50 [2]?
A: Its IC50 is 1000 to 5000 nM.

Q: What does the source list for CC[C@@]1(c2cccc(-c3cc[n+](O)cc3[S@@+](C)[O-])c2)C2=CN=NC2NC2=C1C(=O)CC(C)(C)C2 (stereo not given in full) [US20250313563, Compound 947571]?
A: IC50 [1]: 100 to 1000 nM; IC50 [2]: 1000 to 5000 nM

Q: What does the source list for CC[C@]1(c2cccc(-c3c(C)nn(C)c3C)c2)C2=C(CC(C)(C)NC2=O)NC2N=NC(C)=C21 (stereo not given in full) [US20250313563, Compound 947573]?
A: IC50 [1]: 100 to 1000 nM; IC50 [2]: 1000 to 5000 nM

Q: CC[C@@]1(c2cccc(-c3ccncc3C)c2)C2=CN=NC2NC2=C1C(=O)NC(C)(C)C2 (stereo not given in full) [US20250313563, Compound 947574] was tested. Which IC50 [1] did it give?
A: The IC50 was < 100 nM.

Q: What about the IC50 [2] of the same compound?
A: Its IC50 is < 100 nM.

Q: For COCc1cccc(S(=O)(=O)N2CCC3(CC2)C2=C(N=NC2)NC2=C3C(=O)CC(C)(C)C2)c1 [US20250313563, Compound 947605], which IC50 [1] is on record?
A: Its IC50 is < 100 nM.

Q: And the IC50 [2]?
A: The IC50 was < 100 nM.

Q: Cn1nc(C(F)(F)F)cc1S(=O)(=O)N1CCC2(CC1)C1=C(N=NC1)NC1=C2C(=O)CC(C)(C)C1 [US20250313563, Compound 947606] was tested. Which IC50 [1] did it give?
A: Its IC50 is < 100 nM.

Q: And the IC50 [2]?
A: Its IC50 is < 100 nM.

Q: For CC(C)n1cc(S(=O)(=O)N2CCC3(CC2)C2=C(N=NC2)NC2=C3C(=O)CC(C)(C)C2)cn1 [US20250313563, Compound 947607], which IC50 [1] is on record?
A: The IC50 was < 100 nM.

Q: What about the IC50 [2] of the same compound?
A: Its IC50 is < 100 nM.

Q: Which IC50 [1] does the source give for Cc1cc(S(=O)(=O)N2CCC3(CC2)C2=C(N=NC2)NC2=C3C(=O)CC(C)(C)C2)n(C)n1 [US20250313563, Compound 947608] here?
A: Its IC50 is < 100 nM.

Q: And the IC50 [2]?
A: Its IC50 is < 100 nM.

Q: For CCn1nc(C)cc1S(=O)(=O)N1CCC2(CC1)C1=CN=NC1NC1=C2C(=O)CC(C)(C)C1 (stereo not given) [US20250313563, Compound 947609], which IC50 [1] is on record?
A: Its IC50 is < 100 nM.

Q: And the IC50 [2]?
A: Its IC50 is 100 to 1000 nM.

Q: CC1(C)CC(=O)C2=C(C1)NC1=C(CN=N1)C21CCN(S(=O)(=O)c2cnc3ccccn23)CC1 [US20250313563, Compound 947610] was tested. Which IC50 [1] did it give?
A: The IC50 was < 100 nM.

Q: What about the IC50 [2] of the same compound?
A: The IC50 was < 100 nM.

Q: What does the source list for Cc1ncc(S(=O)(=O)N2CCC3(CC2)C2=C(N=NC2)NC2=C3C(=O)CC(C)(C)C2)o1 [US20250313563, Compound 947611]?
A: IC50 [1]: < 100 nM and 100 to 1000 nM; IC50 [2]: < 100 nM and 100 to 1000 nM

Q: With COc1ccc(S(=O)(=O)N2CCC3(CC2)C2=C(N=NC2)NC2=C3C(=O)CC(C)(C)C2)cc1Cl [US20250313563, Compound 947612] as the compound, how does the IC50 [1] read?
A: Its IC50 is < 100 nM.

Q: And the IC50 [2]?
A: Its IC50 is < 100 nM.

Q: With CC1(C)CC(=O)C2=C(C1)NC1=C(CN=N1)C21CCN(S(=O)(=O)c2cccnc2)CC1 [US20250313563, Compound 947613] as the compound, how does the IC50 [1] read?
A: The IC50 was < 100 nM and 100 to 1000 nM.

Q: And the IC50 [2]?
A: The IC50 was < 100 nM and 1000 to 5000 nM.

Q: How did the IC50 [1] turn out when Cc1cnc2c(S(=O)(=O)N3CCC4(CC3)C3=C(N=NC3)NC3=C4C(=O)CC(C)(C)C3)cccc2c1 [US20250313563, Compound 947614] was run?
A: The IC50 was < 100 nM.

Q: What about the IC50 [2] of the same compound?
A: Its IC50 is < 100 nM.

Q: CC1(C)CC(=O)C2=C(C1)NC1=C(CN=N1)C21CCN(S(=O)(=O)c2cnn3ccccc23)CC1 [US20250313563, Compound 947615] was tested. Which IC50 [1] did it give?
A: The IC50 was < 100 nM.

Q: And the IC50 [2]?
A: Its IC50 is < 100 nM.

Q: For Cc1cc(S(=O)(=O)N2CCC3(CC2)C2=C(N=NC2)NC2=C3C(=O)CC(C)(C)C2)cc(C)n1 [US20250313563, Compound 947616], which IC50 [1] is on record?
A: Its IC50 is < 100 nM and 100 to 1000 nM.

Q: And the IC50 [2]?
A: The IC50 was < 100 nM and 1000 to 5000 nM.
